A short description of data set [1]: Plasma binding by RED device. On all read-outs here: tested at 0.4 µM. The data set is classed as in vitro ADME, human. Particulars: for plasma binding: human; for f u,plasma %: human plasma, RED device, 4 h, 37 °C. The protocol: (§1) Nonspecific binding in plasma (f u, plasma), microsomes (f u, mic) and hepatocyte (f u, hep) were determined using the method seen in supplemental information (Supplemental Methods). […]
All validation compounds were incubated at 37 °C over 4 h, and in triplicate. For […]
plasma stability, 10 mM DMSO solutions of SLM and SLOH were diluted to 40 µM (10% DMSO). Plasma […]
shaking water bath (60 oscillations/min approx.). The assay was started by addition of 6 µL aliquots to […]
the plasma (final DMSO incubation concentration 0.1%). […]
(§2) MS/MS. Natural logarithm of peak area ratios (compound peak area normalized by IS peak area) were plotted against time and half-life calculated. […]
(§3) placed into the sample chamber (indicated by the red ring) with 400 µL of PBS into the adjacent chamber.
(§4) The plate was sealed with a self-adhesive lid and incubated at 37 °C on an orbital shaker (1.5 g approx.) for 4 h. Aliquots (100 µL) were removed from each side of the insert, and analyzed after protein precipitation using 4 folds acetonitrile (ACN) containing berberine chloride as internal standard (IS) by LC-MS/MS (Analytical me thod seen below). The experimental procedure outlined in the Thermo Scientific RED device systems brochure was adopted in the present study . […]

Another data set concerns the target P-gp (Homo sapiens, UniProt P08183). The data set can be described thus: Efflux transporter identification in Caco-2 cell with P-gp specific inhibitors. Particulars: efflux ratio reduced by PSC833 and verapamil, concentration-dependent. (In general: Passage across Caco-2 layers is used to estimate intestinal permeability.)
A further data set has as its target T1, OATP1B1 (Homo sapiens, UniProt Q9Y6L6).
T1 sequence (Q9Y6L6 1-691): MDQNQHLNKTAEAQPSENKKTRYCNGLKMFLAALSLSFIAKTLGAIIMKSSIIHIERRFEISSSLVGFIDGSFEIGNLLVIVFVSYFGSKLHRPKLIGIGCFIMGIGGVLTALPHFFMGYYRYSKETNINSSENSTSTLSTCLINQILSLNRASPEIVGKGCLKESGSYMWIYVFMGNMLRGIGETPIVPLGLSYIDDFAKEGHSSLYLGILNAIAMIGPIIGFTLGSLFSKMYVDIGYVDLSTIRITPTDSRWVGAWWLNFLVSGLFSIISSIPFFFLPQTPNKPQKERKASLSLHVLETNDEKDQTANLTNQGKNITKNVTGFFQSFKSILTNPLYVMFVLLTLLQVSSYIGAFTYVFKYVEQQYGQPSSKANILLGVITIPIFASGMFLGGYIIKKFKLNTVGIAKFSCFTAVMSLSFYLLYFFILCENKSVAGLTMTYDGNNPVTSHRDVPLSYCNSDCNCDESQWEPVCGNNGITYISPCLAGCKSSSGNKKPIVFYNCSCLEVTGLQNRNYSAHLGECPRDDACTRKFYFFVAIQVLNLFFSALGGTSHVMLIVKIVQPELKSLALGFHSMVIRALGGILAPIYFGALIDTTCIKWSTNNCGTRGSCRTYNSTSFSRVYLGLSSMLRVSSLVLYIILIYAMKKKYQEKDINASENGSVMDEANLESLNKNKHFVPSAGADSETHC
In words: OATP substrate identification, uptake in stably transfected HEK293 cells. Particulars: 1 and 10 μM, 10 mins. The procedure: Daily changes of medium were performed and on the second day after seeding using medium containing 10 mM sodium butyrate.
Stably transfected HEK cells and control vector-transfected HEK293 cells were first washed (3 × 1 mL) with prewarmed HBSS (pH 7.4) and then were incubated with 250 μL of HBSS containing compounds at concentrations of 1 and 10 μM. Cells were incubated for 10 mins at 37 °C for all experiments. After incubation, uptake was stopped by aspirating the incubation solution and washing each well 3 times with 200 μL of ice-old HBSS. The cells were lysed in 150 μL of 1 M NaOH for 30 mins, and then neutralized by adding equal volumes of 1 M HCl.
The following equations (3 and 4) were used to calculate the uptake rates (U, pmol/mg/min) and the OATP1B1, OATP1B3, OATP2B1 and OATP1A2 uptake ratio (UR):3 U=Clysate/P×T 4 UR=UOATP1B1/1B3/2B1/1A2/UHEK293−MOCK where C lysate is the compound concentration in cell lysates. P is the protein concentration in cell lysates. T is the incubation time. U OATP1B1/1B3/2B1/1A2 is the uptake rate obtained in HEK293 stably transfected OATP1B1, OATP1B3, OATP2B1 or OATP1A2 transportation. U HEK293-MOCK is the uptake rate obtained in control vector-transfected HEK293 transportation.

The next data set has as its system Aβ. The arrangement: method as in PMID 22086555. The note with it: cited from earlier work.
Data set [2] in a line: Liver microsomes stability with NADPH. The note with it: for microsomal CLint at 1 μM: ICR/CD-1, liver microsomes, NADPH, read-out: Microsomes Cl int,app; for microsomal CLint at 1 μM / CLint scaled at 1 μM: pH 7.4; for CLint scaled at 1 μM: ICR/CD-1, mouse, liver microsomes, read-out: Microsomes Cl int,scaled; for Microsomes scaled Cl hep: well-stirred model; for Microsomes Cl u, int,app: Cl int,app / f u,mic. In kind it is in vitro ADME, mouse. In general terms: Liver microsomes are a subcellular fraction often used to study metabolism.

Data set [3] is described as follows: Liver microsomes binding by RED device. In kind it is in vitro ADME. The protocol:
as §1
Plasma, liver microsomes and hepatocyte binding by RED device […]
The stability of the compounds in plasma, liver microsomes and hepatocyte were studied to ensure […]
the reliability of the binding data. Hepatocyte was deactivated by leaving them on a bench for 2 days […]
and going through a freeze thaw cycle thereafter. […]
denatured. Testosterone was used as a control for CYP3A to ensure no turnover, so that the enzymes […]
were inactivated. All validation compounds were incubated at 37 °C over 4 h, and in triplicate. […]
For liver mi crosomes without cofactors and […]
mg/mL protein concentration, same as the assay condition) or deactivated hepatocytes (0.5 million […]
cells/mL, same as the assay condition) were added to the donor wells. 10 mM DMSO solutions of SLM […]
and SLOH were diluted to 50 µM (10% DMSO). 490 µL aliquots microsomes (0.51 mg/mL) and […]
hepatocytes (0.51 million cells/mL) were dispensed into a 1.5 mL tube, and then pre-warmed at 37 °C […]
in a shaking water bath. The assay was started by addition of 10 µL aliquots of compound solutions to […]
the corresponding biologica l matrices (final DMSO incubation concentration 0.2%, microsomes […]
concentration 0.50 mg/mL, hepatocytes concentration 0.5 million cells/mL). At 0, 15, 30, 60, 120, 180 […]
as §2, §3, §4
For control experiments, NADPH, UDPGA and/or liver microsomes were omitted from these incubations. For the purposes of metabolite identification studies, the concentration of SLOH and […]

Setting [4] is: human liver microsomes 0.5 mg/mL.
The mark [5] stands for this setting: mouse liver microsomes 0.5 mg/mL.

P-gp, sequence (P08183 whole entry): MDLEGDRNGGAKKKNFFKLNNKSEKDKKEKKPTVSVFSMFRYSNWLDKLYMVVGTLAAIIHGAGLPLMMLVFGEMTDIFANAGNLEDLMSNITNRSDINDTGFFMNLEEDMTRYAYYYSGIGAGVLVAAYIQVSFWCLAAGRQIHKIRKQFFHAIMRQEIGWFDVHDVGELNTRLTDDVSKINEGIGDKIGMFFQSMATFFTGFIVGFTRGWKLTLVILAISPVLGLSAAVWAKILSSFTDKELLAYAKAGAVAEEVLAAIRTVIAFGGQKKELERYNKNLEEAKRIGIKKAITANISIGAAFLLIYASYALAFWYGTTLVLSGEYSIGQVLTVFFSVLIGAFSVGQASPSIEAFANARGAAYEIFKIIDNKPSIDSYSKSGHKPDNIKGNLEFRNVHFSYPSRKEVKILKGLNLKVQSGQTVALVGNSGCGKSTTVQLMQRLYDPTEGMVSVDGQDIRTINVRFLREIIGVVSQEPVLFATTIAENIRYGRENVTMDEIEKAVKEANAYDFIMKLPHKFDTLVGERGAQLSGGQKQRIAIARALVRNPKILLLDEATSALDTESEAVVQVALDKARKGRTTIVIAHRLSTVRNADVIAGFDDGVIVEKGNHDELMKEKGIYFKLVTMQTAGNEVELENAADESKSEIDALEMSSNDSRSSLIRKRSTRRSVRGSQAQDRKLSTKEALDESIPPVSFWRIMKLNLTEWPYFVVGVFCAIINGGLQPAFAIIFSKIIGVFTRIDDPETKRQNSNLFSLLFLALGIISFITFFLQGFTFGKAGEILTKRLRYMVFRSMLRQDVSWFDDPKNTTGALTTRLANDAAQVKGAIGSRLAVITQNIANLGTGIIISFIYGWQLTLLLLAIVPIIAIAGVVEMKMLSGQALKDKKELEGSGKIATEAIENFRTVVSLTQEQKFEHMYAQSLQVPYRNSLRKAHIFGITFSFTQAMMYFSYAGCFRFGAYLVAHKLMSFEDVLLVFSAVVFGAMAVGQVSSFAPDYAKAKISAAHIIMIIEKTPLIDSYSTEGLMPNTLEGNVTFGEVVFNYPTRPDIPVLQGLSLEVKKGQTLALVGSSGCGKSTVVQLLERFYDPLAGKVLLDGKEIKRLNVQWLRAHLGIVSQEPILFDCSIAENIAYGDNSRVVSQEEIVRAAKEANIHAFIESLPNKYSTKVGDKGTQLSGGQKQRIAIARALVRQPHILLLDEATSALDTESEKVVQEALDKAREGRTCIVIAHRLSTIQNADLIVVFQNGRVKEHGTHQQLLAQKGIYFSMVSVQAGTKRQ

Take `COCCOCCn1c2ccccc2c2cc(/C=C/c3cc[n+](CCO)c4ccccc34)ccc21` [SLOH, (E)-1-(2-hydroxyethyl)-4-(2-(9-(2-(2-metho-xyethoxy)-ethyl)-9H-carbazol-3-yl)vinyl) quinolin-1-ium chloride]: in data set [1], the plasma binding is given as greater than 95% and the “f u,plasma %” value is recorded as 0.170 ± 0.0400%. Further, the P-gp substrate identification entry at P-gp is recorded as “substrates”. The “uptake by OATP1B1 transfected HEK293 versus WT cells” value at OATP1B1 was “no significant differences”. Moreover, the “reduction of Aβ fibrillogenesis in vitro” value with Aβ is “reduce Aβ fibrillogenesis significantly”. In data set [2] (mouse), the microsomal CLint at 1 μM is 30 µL/min/mg; the “Microsomes Cl u, int,scaled” value is 680 ± 75.0^$$ mL/min/Kg; the “Microsomes scaled Cl hep” value stood at 18.3 ± 1.67 mL/min/kg; the “Microsomes Cl u, int,app” value is 0.170 ± 0.0200^$$ mL/min/mg. Also, the CLint scaled at 1 μM in data set [2] stood at 110 ± 13 mL/min/kg. The “f u,mic %” value in data set [3] (setting [4]) is listed as 6.60 ± 1.60%. For the same compound, the “f u,mic %” value in data set [3] (setting [5]) is 17.0 ± 2.40^$ %.
`COCCOCCn1c2ccccc2c2cc(/C=C/c3cc[n+](C)c4ccccc34)ccc21.[I-]` [SLM, (E)-4-(2-(9-(2-(2-methoxyethoxy)ethyl)-9H-carbazol-3-yl)-vinyl)-1-methyl-quinolin-1-iumiodide]: in data set [1], the plasma binding is given as greater than 95% and the “f u,plasma %” value came out at 0.100 ± 0.0100%. Moreover, the P-gp substrate identification entry on P-gp is given as “substrates”. Further, the “uptake by OATP1B1 transfected HEK293 versus WT cells” value at OATP1B1 is on record as “no significant differences”. In the data set on Aβ, the “reduction of Aβ fibrillogenesis in vitro” value was “reduce Aβ fibrillogenesis significantly”. For the same compound, in data set [2] (mouse), the microsomal CLint at 1 μM was 30 µL/min/mg; the “Microsomes scaled Cl hep” value amounted to 16 ± 0.833 mL/min/kg; the “Microsomes Cl u, int,app” value was 0.300 ± 0.0200^$$ mL/min/mg. Moreover, the CLint scaled at 1 μM in data set [2] was determined as 130 ± 9 mL/min/kg. For the same compound, the “f u,mic %” value in data set [3] (setting [4]) came to 7.30 ± 0.150%. Also, the “f u,mic %” value in data set [3] (setting [5]) is 11.0 ± 1.06^$ %.

(Values after paper PMC5703966, “Systemic clearance and brain distribution of carbazole-based cyanine compounds as Alzheimer’s disease drug candidates” (Scientific Reports, 2017).)
